Reference: patent US20260085340A1, “METHOD FOR SINGLE CELL ANTIMICROBIAL SUSCEPTIBILITY TESTING IN A SUB-DOUBLING TIME” (The Penn State Research Foundation, priority 2022, published 2026)
Converted amounts (≈) assume the structure as drawn. “Also recorded” adds a separate entry of the source. Read-outs that look alike come from different tables or passages of the source.

What was measured:
[1] = test system: Klebsiella pneumoniae; assay: Time-lapse single cell imaging of K. pneumoniae treated with meropenem (cell division, morphology); type: cell-based; details: for bulging or protrusion around the center of the cell: 5 μg/mL meropenem, early time points
Protocol: Klebsiella pneumoniae isolates (listed in Table 1 below) from the CDC & FDA Antimicrobial Resistance (AR) bank and American Type Culture Collective (ATCC) were grown in Mueller Hinton Broth (MHB) at 37° C. overnight. The next day, cells were sub-cultured in fresh MHB media for three hours (growth phase) to a density equivalent to OD600=0.5. Bacteria cells (10 μL) were treated with 10 μL meropenem at varying final concentrations of 0, 0.05, 0.5, 5, and 50 μg/mL to ascertain the physiological responses of cells. A subset of these isolates was treated with finer range of antimicrobial concentrations (0.02, 0.04, 0.016, 0.032, 0.064, 0.125, 0.5, 1, 2 μg/mL) to train the algorithm for quantitative prediction of MIC. The MICs of the isolates were obtained from the CDC and independently confirmed using the broth microdilution method according to the CDC guideline.
Bacteria cells and meropenem in liquid media are briefly vortexed prior to mounting on 1% (v/v) UltraPure agarose pad (10×20 mm, Invitrogen) on a microslide covered with a glass coverslip (#1.5, 22×30 mm). Bacteria imaging was performed using a Nikon Ti2-E inverted microscope equipped with a DS-Qi2 CMOS camera and an Okolab stage-top temperature control chamber (37° C., 5% CO2). Images were acquired using a Nikon CFI Plan Apochromat 1 DM 100× oil objective lens and an external Phase Contrast (Ph3) module. Each isolate was observed over a period of 75 minutes (15-90 minutes after mixing with the antimicrobial).
Time-series images were stacked and corrected for shifts in the time series using the Template Matching and Slice Alignment ImageJ plugin. Each individual stack was then analyzed using the MicrobeJ plugin for ImageJ. The plugin, designed for the detection and analysis of bacterial cells, uses computer vision algorithms to automatically identify a cell and determine a suite of morphological features, such as its area, length, circularity, and perimeter (see Table 2 below). The tracking data were summarized as a table and exported as a comma-separated values (.csv) file for further analysis.
(§1) We developed a non-limiting example machine learning workflow for rapid AST in a sub-doubling time of the bacteria. The MorphoAST workflow started with imaging of individual bacteria under various antimicrobial concentrations (FIG. 1A). Cells were grown to log phase and treated with varying concentrations of meropenem. Cells without any antimicrobials were imaged in the same manner as controls for the experiment. Live bacteria were mounted on an agarose pad to minimize cell movement due to cell motility and Brownian motion. Time-lapse images were taken every 5 minutes. Images were aligned to match the location of individual cells at each frame and then subject to MicrobeJ analysis for extracting morphological features. A total of 21 parameters (Table 2) describing the cellular dimension and orientation were generated. The data were analyzed either fitting with an exponential function to extract the feature changing rates (FIG. 1B) or normalized against the untreated control to extract the feature differentials (FIG. 1C). The data were applied to train and validate machine learning classifiers to predict the antimicrobial response (FIG. 1D) and regressors to predict the MIC of the bacterial strain against the antimicrobial (FIG. 1E).

[2] = test system: clinical samples of KP (VA_1 and VA_2); assay: Experimental MIC of clinical samples of KP from patients with urinary tract infections; type: cell-based, Klebsiella pneumoniae
Protocol: (§2) In addition to validation against unseen strains, the model was tested against imaging data from two clinical samples of KP obtained from patients visiting the VA (Palo Alto) with urinary tract infections (FIG. 9D-E). The experimental MICs for these clinical samples (VA_1 and VA_2) was 0.5 μg/mL, i.e., susceptible. […] When the incubation time was increased to 50 minutes, both strains were predicted to have a mode MIC of 1 μg/mL which accurately classifies both clinical isolates as susceptible with an MIC within one-two fold dilution from the experimental MIC resulting.

[3] = test system: clinical samples of KP (VA_1 and VA_2); assay: MorphoAST MIC prediction with Random Forest regressor (concentration differential) from single cell imaging; type: cell-based, Klebsiella pneumoniae; details: for MIC: Klebsiella pneumoniae
Protocol: as §1
We further evaluated the use of the concentration differential data for MIC prediction. A Random Forest regressor was trained from a total of 39,135 cells across the concentrations. […] The Random Forest regressor predicted the MIC in the 5-fold cross-validated training dataset with an RMSE of 0.8, MAE of 0.2, and an R^2 of 0.93. The performance of the model was assessed against 5 unseen KP strains, which comprised 6,067 cells. The experimental MIC and predicted MIC of the 5 unseen strains based on the Random Forest regressor are compared in FIG. 9B. […] The predicted and experimentally reported MIC labels were also compared. Based on the predicted MIC for each strain, the model correctly predicted 100% (2/2) of the susceptible and intermediate (1/1) bacteria in as few as 30 minutes. The performance of the model increased with the antimicrobial exposure time and achieved 100% CA with 0% ME and 0% VME in 50 minutes. We then tested the model performance in predicting the MIC for individual cells within each population of the unseen strains tested (FIG. 9C). While there is heterogeneity in calls for individual cells from a single population, ˜79.9% of cells from 3/5 strains tested (KP 003, KP_139, and KP_U3) had predicted MICs within one-two fold dilution from the experimental MIC after 20 minutes of antimicrobial exposure. After 50 minutes of exposure, ˜85.1% of all cells from 5/5 tested strains had predicted MICs within one-two fold dilution from experimental MIC.
as §2

[4] = test system: Klebsiella pneumoniae isolates; details: cited from earlier work

Question: Which “Bulging of the cells” value ([1]; K. pneumoniae KP0142, 50 μg/ml meropenem versus 0 μg/ml) does the source give for C[C@@H](O)[C@H]1C(=O)N2C(C(=O)O)=C(S[C@@H]3CN[C@H](C(=O)N(C)C)C3)[C@H](C)[C@H]12 [Meropenem, meropenem] here?
Answer: Its value is “observed only in the meropenem case; also recorded: only observed in the meropenem case”.

Question: And the cell division ([1]; K. pneumoniae KP0142, 50 μg/ml meropenem, time-lapse imaging)?
Answer: Its cell division is “completely inhibited”.

Question: And the “bulging or protrusion around the center of the cell” value ([1]; KP0016 (susceptible))?
Answer: The value was “noticeable ‘bulging’ or protrusion around the center of the cell”.

Question: What about the “bulging or protrusion around the center of the cell” value ([1]; KP0142 (intermediate)) of the same compound?
Answer: The value was “noticeable ‘bulging’ or protrusion around the center of the cell”.

Question: What about the “bulging or protrusion around the center of the cell” value ([1]; KP0143 (resistant)) of the same compound?
Answer: Its value is “not observed”.

Question: What about the MIC ([2]; Klebsiella pneumoniae, clinical sample VA_1) of the same compound?
Answer: Its MIC is 0.5 µg/mL.

Question: And the “susceptibility category from experimental MIC” value ([2]; clinical sample VA_1)?
Answer: Its value is “susceptible”.

Question: What about the “experimental MIC” value ([2]; clinical sample VA_2) of the same compound?
Answer: The value was 0.5 µg/mL.

Question: And the “susceptibility category from experimental MIC” value ([2]; clinical sample VA_2)?
Answer: The value was “susceptible”.

Question: And the MIC ([3]; 20 min, clinical sample VA_1, within 20 minutes of meropenem treatment, read-out: predicted MIC)?
Answer: Its MIC is 8 µg/mL (≈ 20.9 µM).

Question: What about the MIC ([3]; 20 min, clinical sample VA_2, within 20 minutes of meropenem treatment, read-out: predicted MIC) of the same compound?
Answer: Its MIC is 7 µg/mL (≈ 18.3 µM).

Question: What about the MIC ([3]; 50 min, clinical sample VA_1, 50 minutes incubation, read-out: predicted mode MIC) of the same compound?
Answer: The MIC was 1 µg/mL (≈ 2.61 µM).

Question: What about the MIC ([3]; 50 min, clinical sample VA_2, 50 minutes incubation, read-out: predicted mode MIC) of the same compound?
Answer: Its MIC is 1 µg/mL (≈ 2.61 µM).

Question: What about the predicted susceptibility category ([3]; clinical sample VA_1, 50 minutes incubation) of the same compound?
Answer: Its predicted susceptibility category is “susceptible”.

Question: And the predicted susceptibility category ([3]; clinical sample VA_1, within 20 minutes of meropenem treatment)?
Answer: The predicted susceptibility category was “resistant”.

Question: And the predicted susceptibility category ([3]; clinical sample VA_2, 50 minutes incubation)?
Answer: Its predicted susceptibility category is “susceptible”.

Question: What about the predicted susceptibility category ([3]; clinical sample VA_2, within 20 minutes of meropenem treatment) of the same compound?
Answer: Its predicted susceptibility category is “resistant”.

Question: And the “MIC of the strain” value ([4]; K. pneumoniae KP0142)?
Answer: The value was 2 µg/mL.

Question: What about the Meropenem MIC ([4]; KP strain AR Bank# 0010) of the same compound?
Answer: Its Meropenem MIC is 1 µg/mL.

Question: And the Meropenem MIC ([4]; KP strain AR Bank# 0016)?
Answer: Its Meropenem MIC is under 0.5 µg/mL.

Question: What about the “Meropenem Susc.” value ([4]; KP strain AR Bank# 0016) of the same compound?
Answer: The value was “Susceptible”.

Question: What about the Meropenem MIC ([4]; KP strain AR Bank# 0028) of the same compound?
Answer: Its Meropenem MIC is under 0.5 µg/mL.

Question: What about the Meropenem MIC ([4]; KP strain AR Bank# 0120) of the same compound?
Answer: Its Meropenem MIC is over 8 µg/mL.

Question: What about the Meropenem MIC ([4]; KP strain AR Bank# 0140) of the same compound?
Answer: The Meropenem MIC was 2 µg/mL.

Question: What about the Meropenem MIC ([4]; KP strain AR Bank# 0142) of the same compound?
Answer: The Meropenem MIC was 2 µg/mL.

Question: And the “Meropenem Susc.” value ([4]; KP strain AR Bank# 0142)?
Answer: The value was “Intermediate”.

Question: And the Meropenem MIC ([4]; KP strain AR Bank# 0143)?
Answer: The Meropenem MIC was over 8 µg/mL.

Question: And the “Meropenem Susc.” value ([4]; KP strain AR Bank# 0143)?
Answer: The value was “Resistant”.

Question: And the Meropenem MIC ([4]; KP strain AR Bank# 0147)?
Answer: The Meropenem MIC was 0.5 µg/mL.

Question: What about the Meropenem MIC ([4]; KP strain AR Bank# 0153) of the same compound?
Answer: Its Meropenem MIC is over 8 µg/mL.

Question: What about the Meropenem MIC ([4]; KP strain AR Bank# 0160) of the same compound?
Answer: Its Meropenem MIC is over 8 µg/mL.

Question: And the Meropenem MIC ([4]; KP strain ATCC 700603)?
Answer: Its Meropenem MIC is at most 0.25 µg/mL.

Question: What about the Meropenem MIC ([4]; KP strain ATCC BAA-1705) of the same compound?
Answer: Its Meropenem MIC is over 8 µg/mL.
